Source: patent publication US20250387390A1, “METHODS FOR TREATING FIBROSIS USING PKM2 ACTIVATORS” (Proda Biotech L.L.C., priority 2020, published 2025)

Key:
LX2 cells [1] = test: qRT-PCR of Col1A1, PHGDH, PSAT1, SHMT1, SHMT2 mRNA in LX2 cells after TGFβ; assay type: cell-based; conditions: following TGFβ treatment, vs DMSO, qRT-PCR fold change
Method: Cellular levels of mRNA of collagen (Col1A1), PHGDH, PSAT1, SHMT1, and SHMT2 in LX2 cells with DASA-10 (black bar) or DMSO (open bar) treatment following TGFβ treatment were analyzed by qRT-PCR. The cellular mRNA levels are presented as fold change by comparing controls. Error bars represent mean±S.E.M.

LX2 cells [2] = test: LOX and LOXL2 expression in LX2 cells under hypoxia (immunoblot, qPCR); assay type: cell-based; conditions: 10 μM, hypoxia 24 hours, vs DMSO
Method: (§1) Section (B) Relative band intensities were calculated for both LOX and LOXL2 using ImageJ.

NLF cells = test: LOX and LOXL2 expression in NLF cells under hypoxia (immunoblot, qPCR); assay type: cell-based; conditions: 10 μM, hypoxia 24 hours, vs DMSO
Method: as §1

[3] = tested on: TAA/alcohol liver fibrosis; test: TAA/alcohol liver fibrosis induction in mice with subsequent treatment; assay type: in vivo
Method: (§2) Sections (A) & (E) of FIG. 1 are schematic illustrations of the schedule of TAA/alcohol liver fibrosis (A) and bleomycin lung fibrosis (E) induction and subsequent TEPP-46 treatments. […] Sections (C) & (D) of FIG. 1 show quantitation of collagen levels in Sirius red (B) and Masson's trichrome (F) staining and a-SMA IF (B) and IHC (F) staining of fibrotic liver (B) and lung (F) using ImageJ software. Quantification was calculated from measurements of 10 mice. Four randomly selected tissue sections per animal and three randomly selected view fields in each section were quantified. The quantity of collagen levels in Sirius red or Masson's trichrome stain and α-SMA IF or IHC stain is presented as % of total area. […] Sections (G) & (H) show Quantitative analyses of Serine (G) and Glycine (H) levels in tissue extracts of liver and lung from mice treated with indicated agents by HPLC-ms. Serine and glycine levels are presented as relative abundance by defining the vehicle treated group as 100%. Error bars in Sections C, D, G, H represent mean±S.E.M

bleomycin lung fibrosis = test: Bleomycin lung fibrosis induction in mice with subsequent treatment; assay type: in vivo
Method: as §2

cerulein pancreatitis = test: Cerulein pancreatitis induction in mice with subsequent treatment; assay type: in vivo; conditions: cerulein-induced, vs vehicle
Method: Section (A) is schematic illustration of the schedule of cerulein (red arrows) pancreatitis induction and subsequent TEPP-46 treatments (green arrows). […] Quantification was calculated from measurements of 6 mice. Four randomly selected tissue sections per animal and three randomly selected view fields in each section were quantified. The quantity of collagen levels in Sirius red stain is presented as % of total area.

[4] = tested on: myocardial infarction (MI); test: Myocardial infarction by left ventricle ligation, cardiac fibrosis; assay type: in vivo; conditions: C57BL/6J mice, LV ligation 70 minutes, i.p. injection, vs vehicle
Method: C57BL/6J mice (n=6/group) were induced myocardial infarction (MI) by left ventricle ligation (LV). Sham are the mice underwent the same surgical procedure without LV. After 70 minutes, the LV was relieved. All mice were immediately treated with TEPP-46 or vehicle by i.p. injection. No treatment for the Sham mice. […] Scale bars, […]. […] The quantification is a mean value of randomly selected 4 fields from each section. Four sections were randomly selected from each mouse. The quantification is presented as blue staining Collagen Area (%). Error bars represent mean±S.E.M. * P<0.05, ** P<0.01, *** P<0.001, by unpaired two-tailed Student's t-test.

SMILES	metabolic enzymes involved in serine/glycine metabolism (mRNA of Col1A1, PHGDH, PSAT1, SHMT1, SHMT2) (LX2 cells [1])	LOX and LOXL2 expression (LX2 cells [2])	LOX and LOXL2 expression (NLF cells)	liver fibrosis (collagen by Sirius red, α-SMA IF staining, % of total area) ([3]; TAA/alcohol liver fibrosis, mice, vs vehicle)	LOX expression in vivo (IHC LOX positive area, LOX activity) ([3]; fibrotic liver, TAA/alcohol model)	serine/glycine metabolism (serine and glycine levels in tissue extracts by HPLC-ms) ([3]; fibrotic liver, relative abundance, vehicle group = 100%)	lung fibrosis (collagen by Masson's trichrome, α-SMA IHC staining, % of total area) (bleomycin lung fibrosis; bleomycin lung fibrosis, mice, vs vehicle)	serine/glycine metabolism (serine and glycine levels in tissue extracts by HPLC-ms) (bleomycin lung fibrosis; fibrotic lung, relative abundance, vehicle group = 100%)	LOX expression in vivo (IHC LOX positive area, LOX activity) (bleomycin lung fibrosis; fibrotic lungs, bleomycin model)	pancreatitis (collagen in Sirius red staining, H&E of pancreas) (cerulein pancreatitis)	cardiac fibrosis after infarction (trichrome Collagen Area %) [4]
O=S(=O)(c1ccc2c(c1)OCCO2)N1CCN(S(=O)(=O)c2c(F)cccc2F)CC1 [DASA-10]	decreases metabolic enzymes that are involved in serine/glycine metabolism	reduces LOX and LOXL2 expression	reduces LOX and LOXL2 expression	–	–	–	–	–	–	–	–
Cn1c2cc([S+](C)[O-])sc2c2cnn(Cc3cccc(N)c3)c(=O)c21 (centres unmarked) [TEPP-46]	–	–	–	reverses liver and lung fibrosis	reduces LOX expression in vivo	decreases serine/glycine metabolism	reverses liver and lung fibrosis	decreases serine/glycine metabolism	reduces LOX expression in vivo	reverse pancreatitis	decreases cardiac fibrosis after infarction
